Measurements published in article PMC6277767, “Broad and Region-Specific Impacts of the Synthetic Cannabinoid CP 55,940 in Adolescent and Adult Female Mouse Brains” (Frontiers in Molecular Neuroscience, 2018).

Tested on: CD1 female mouse brain lipidome
Test: Brain-region lipid levels (HPLC/MS/MS lipidomics) 2 h after single i.p. 3 mg/kg CP 55,940 vs vehicle
Format: in vivo
Settings: hippocampus
Protocol: The Bloomington Institutional Animal Care and Use Committee of Indiana University reviewed and approved the animal procedures. Female mice from the CD1 strain were utilized to match our study examining THC’s effects on the brain lipidome ([Leishman et al., 2018]). Mice were given a single i.p. injection of either 3 mg/kg CP or 1:1:18 cremophor:ethanol:saline vehicle (please refer to the section “3 mg/kg CP Is Relevant for Synthetic Cannabinoid Abuse and Has Stronger Effects on the Female Mouse Brain Lipidome During Adolescence” for a justification of dose and use of female mice). Three different age groups were given injections: PND 35 and PND 50 adolescents, and adult mice (PND 113). At least eight mice in each age group received CP and at least eight received vehicle. Matching the THC study time course ([Leishman et al., 2018]), mice were sacrificed via rapid decapitation 2 h after injection. Brains were immediately removed and flash-frozen in liquid nitrogen, and then stored at -80°C until dissections were performed. Brains were dissected on an ice-cold dissection plate into the following regions: STR, HIPP, CER, THAL, CTX, HYP, MID, and STEM. These abbreviations for these brain areas will be used exclusively when discussing the results generated by these specific dissections. Each dissected area was immediately placed in liquid nitrogen and then stored at -80°C until used for lipid extraction.
Tissue extracts were performed as previously described ([Bradshaw et al., 2006]; [Stuart et al., 2013]; [Raboune et al., 2014]; [Leishman et al., 2016a],[b], [2017], [2018]). First, samples were shock frozen in liquid nitrogen, weighed, and transferred to a centrifuge tube. The mass of the largest sample was multiplied by 50 to determine how many milliliters of HPLC-grade methanol (Fisher, Fair Lawn, NJ, United States) to add. Then, samples were spiked with 500 pmol deuterium-labeled NAGly (d8NAGly; Cayman Chemical, Ann Arbor, MI, United States). Samples were placed on ice in darkness for 2 h then individually homogenized and centrifuged at 19,000 × g for 20 min at 20°C. Supernatants were diluted with HPLC water (purified in house) to make a solution of 75% water, 25% supernatant. Lipids were partially purified on C18 solid phase extraction columns (Agilent, Palo Alto, CA, United States). A series of four elutions with 1.5 mL of 60%, 75%, 85%, and 100% methanol were collected ([Stuart et al., 2013]; [Leishman et al., 2016a],[b], [2018]).
As previously described ([Bradshaw et al., 2006]; [Tan et al., 2006]; [Smoum et al., 2010]; [Stuart et al., 2013]; [Tortoriello et al., 2013]; [Raboune et al., 2014]; [Leishman et al., 2016a],[b], [2017], [2018]), samples were analyzed using an Applied Biosystems API 3000 triple quadrupole mass spectrometer with electrospray ionization (Foster City, CA, United States). Using an Agilent XDB-C18 reversed phase analytical column and optimized mobile phase gradients, 20 μL from each elution were chromatographed. Two Shimadzu 10ADvp pumps (Columbia, MD, United States) provided the pressure for gradient elution. Mobile phase A: 20% methanol, 80% water (v/v) and 1 mM ammonium acetate (Sigma, St. Louis, MO, United States). Mobile phase B: 100% methanol, 1 mM ammonium acetate. Every method run began with 0% mobile phase B, reached 100% mobile phase B flowing at 0.2 mL/min, and gradually returned to 0% mobile phase B.
This screening library will be referred to as the lipidome when discussing data from this study. HPLC/MS/MS data were analyzed using Analyst software (Applied Biosystems) ([Bradshaw et al., 2006]; [Tan et al., 2006]; [Stuart et al., 2013]; [Tortoriello et al., 2013]; [Raboune et al., 2014]; [Leishman et al., 2016a],[b], [2017], [2018]). Chromatograms (Supplementary Figure 3) were generated by determining the retention time of analytes from the analytical column with a [M-1] or [M+1] parent peak and a fragmentation peak corresponding to the programmed values. […]

[1] = PND 50, 3 mg/kg CP 55,940 vs Veh
[2] = PND 50 female mice, 3mg/kg CP 55,940, mean

CCCCCCC(C)(C)c1ccc([C@@H]2C[C@H](O)CC[C@H]2CCCO)c(O)c1 [CP 55,940] was tested, and the “Linoleic acid, Magnitude (x Veh level)” value [1] was 0.73 x Veh level, the “N-arachidonoyl alanine Magnitude (x Veh level)” value [1] was 0.71 x Veh level and the “N-arachidonoyl alanine, Direction (relative to Veh)” value [1] was “↓”. The “N-arachidonoyl ethanolamine, Direction (relative to Veh)” value [1] was “↓”, the “N-arachidonoyl ethanolamine, Magnitude (x Veh level)” value [1] was 0.64 x Veh level and the “N-arachidonoyl glycine Direction (relative to Veh)” value [1] was “↓”. For the same compound, the “N-arachidonoyl glycine Magnitude (x Veh level)” value [1] was 0.52 x Veh level, the “N-arachidonoyl serine Direction (relative to Veh)” value [1] was “↓” and the “N-arachidonoyl serine Magnitude (x Veh level)” value [1] was 0.51 x Veh level. For the same compound, the “N-arachidonoyl taurine Direction (relative to Veh)” value [1] was “↓”, the “N-arachidonoyl taurine Magnitude (x Veh level)” value [1] was 0.69 x Veh level and the “N-arachidonoyl tyrosine, Direction (relative to Veh)” value [1] was “↑”. For the same compound, the “N-arachidonoyl tyrosine, Magnitude (x Veh level)” value [1] was 1.38 x Veh level, the “N-docosahexaenoyl ethanolamine, Direction (relative to Veh)” value [1] was “↓” and the “N-docosahexaenoyl ethanolamine, Magnitude (x Veh level)” value [1] was 0.73 x Veh level. The “N-linoleoyl ethanolamine, Direction (relative to Veh)” value [1] was “↓”, the “N-linoleoyl ethanolamine, Magnitude (x Veh level)” value [1] was 0.65 x Veh level and the “N-linoleoyl serine Direction (relative to Veh)” value [1] was “↑”. For the same compound, the “N-linoleoyl serine Magnitude (x Veh level)” value [1] was 1.32 x Veh level, the “N-oleoyl leucine Direction (relative to Veh)” value [1] was “↓” and the “N-oleoyl leucine Magnitude (x Veh level)” value [1] was 0.77 x Veh level. The “N-oleoyl serine, Direction (relative to Veh)” value [1] was “↑”, the “N-oleoyl serine, Magnitude (x Veh level)” value [1] was 1.27 x Veh level and the “PGE2 Direction (relative to Veh)” value [1] was “↑”. The “PGE2 Magnitude (x Veh level)” value [1] was 1.15 x Veh level, the “PGF2α Direction (relative to Veh)” value [1] was “↑” and the “PGF2α Magnitude (x Veh level)” value [1] was 1.22 x Veh level. It also gave a 2-arachidonoyl glycerol level [2] of 2.77E-09, a 2-linoleoyl glycerol level [2] of 1.81E-10 and a 2-oleoyl glycerol level [2] of 1.71E-09. The 2-palmitoyl glycerol level [2] was 2.49E-10, the 6-ketoPGF1α level [2] was 6.15E-11 and the 11-OH-THC level [2] was “BDL”. For the same compound, the 11-nor-9-carboxyTHC level [2] was “BDL”, the Arachidonic acid level [2] was 1.73E-09 and the Cannabidiol level [2] was “BDL”. For the same compound, the Linoleic acid level [2] was 5.21E-10, the “N-arachidonoyl GABA level” value [2] was 2.39E-11 and the N-arachidonoyl alanine level [2] was 1.94E-12. The N-arachidonoyl dopamine level [2] was “BDL”, the N-arachidonoyl ethanolamine level [2] was 2.58E-11 and the N-arachidonoyl glycine level [2] was 4.78E-13. For the same compound, the N-arachidonoyl proline level [2] was “BDL”, the N-arachidonoyl serine level [2] was 5.36E-13 and the N-arachidonoyl taurine level [2] was 8.7E-11. The N-arachidonoyl tryptophan level [2] was “BDL”, the N-arachidonoyl tyrosine level [2] was 2.3E-12 and the N-docosahexaenoyl ethanolamine level [2] was 1.92E-11. The N-docosahexaenoyl glycine level [2] was 5.66E-14, the N-docosahexaenoyl methionine level [2] was “BDL” and the N-docosahexaenoyl proline level [2] was “BDL”. The N-docosahexaenoyl tryptophan level [2] was “BDL”, the N-docosahexaenoyl valine level [2] was “BDL” and the N-linoleoyl ethanolamine level [2] was 2.31E-11. For the same compound, the N-linoleoyl glycine level [2] was 8.35E-14, the N-linoleoyl methionine level [2] was “BDL” and the N-linoleoyl proline level [2] was “BDL”. For the same compound, the N-linoleoyl serine level [2] was 7.96E-11, the N-linoleoyl tryptophan level [2] was “BDL” and the N-linoleoyl valine level [2] was “BDL”. The N-nervonoyl valine level [2] was “BDL”, the “N-oleoyl GABA level” value [2] was 1.53E-11 and the N-oleoyl alanine level [2] was 2.17E-12. For the same compound, the N-oleoyl dopamine level [2] was “BDL”, the N-oleoyl ethanolamine level [2] was 8.7E-11 and the N-oleoyl glycine level [2] was 1.25E-13. For the same compound, the N-oleoyl leucine level [2] was 7.72E-13, the N-oleoyl phenylalanine level [2] was 1.52E-13 and the N-oleoyl proline level [2] was “BDL”. The N-oleoyl serine level [2] was 4.19E-10, the N-oleoyl tryptophan level [2] was “BDL” and the “N-palmitoyl GABA level” value [2] was 1.72E-11. The N-palmitoyl alanine level [2] was 2.35E-12, the N-palmitoyl ethanolamine level [2] was 2.9E-11 and the N-palmitoyl glycine level [2] was 5.47E-12. For the same compound, the N-palmitoyl leucine level [2] was 1.17E-12, the N-palmitoyl methionine level [2] was 9.9E-12 and the N-palmitoyl phenylalanine level [2] was 9.31E-14. For the same compound, the N-palmitoyl proline level [2] was “BDL”, the N-palmitoyl serine level [2] was 1.51E-11 and the N-palmitoyl tryptophan level [2] was “BDL”. The N-palmitoyl tyrosine level [2] was 9.92E-13, the “N-stearoyl GABA level” value [2] was 1.36E-11 and the N-stearoyl alanine level [2] was 2.21E-12. The N-stearoyl ethanolamine level [2] was 1.21E-11, the N-stearoyl glycine level [2] was 2.09E-12 and the N-stearoyl leucine level [2] was 1.45E-12. The N-stearoyl phenylalanine level [2] was 9.22E-14, the N-stearoyl proline level [2] was “BDL” and the N-stearoyl serine level [2] was 3.94E-11. The N-stearoyl tryptophan level [2] was “BDL”, the Oleic acid level [2] was 5.52E-10 and the PGE2 level [2] was 5.28E-10. For the same compound, the PGF2α level [2] was 3.99E-10, the PhosphoLEA level [2] was 9.47E-12 and the THC level [2] was “BDL”. The “2-arachidonoyl glycerol level, Mean” value (adult, 3 mg/kg CP 55,940) was 2.63E-09, the “2-linoleoyl glycerol level, Mean” value (adult, 3 mg/kg CP 55,940) was 1.64E-10 and the “2-linoleoyl glycerol: Direction (relative to Veh)” value (adult, 3 mg/kg CP 55,940) was “↓”. For the same compound, the “2-linoleoyl glycerol: Magnitude (x Veh level)” value (adult, 3 mg/kg CP 55,940) was 0.74 x Veh level, the “2-oleoyl glycerol level, Mean” value (adult, 3 mg/kg CP 55,940) was 1.58E-09 and the “2-palmitoyl glycerol level, Mean” value (adult, 3 mg/kg CP 55,940) was 1.43E-10.
